Assay results: ChEMBL document CHEMBL5674860, “Optimized Dual-Glo Assay to identify co-culture-induced drug vulnerabilities in 3D CRC models” (2024)

Legend:
Assay type in all cases: functional, Homo sapiens
Design in all cases: dose or concentration left out as unconfirmed
[1] = tested on: Colon cancer organoid; assay: Optimized Dual-Glo assay to identify co-culture induced drug vulnerabilities using donated chemical probes and chemogenomics kinase set in O06 CRC organoid and F06 CAF mono and co-culture. […] Cell viability is reported both mono and co-culture models.
[2] = tested on: Colon cancer organoid; assay: Optimized Dual-Glo assay to identify co-culture induced drug vulnerabilities using donated chemical probes and chemogenomics kinase set in O20 CRC organoid and F20 CAF mono and co-culture. […] Cell viability is reported both mono and co-culture models.
[3] = tested on: Colon cancer organoid; assay: Optimized Dual-Glo assay to identify co-culture induced drug vulnerabilities using donated chemical probes and chemogenomics kinase set in O14 CRC organoid and F14 CAF mono and co-culture. […] Cell viability is reported both mono and co-culture models.
[4] = Culture type Co-Culture, Transduced with Lucferase2-P2A-EGFP lentivirus
[5] = Culture type Co-Culture, Transduced with Renilla-dsRed lentivirus
[6] = Culture type Mono-Culture, Transduced with Lucferase2-P2A-EGFP lentivirus
[7] = Culture type Mono-Culture, Transduced with Renilla-dsRed lentivirus

O=C1c2ccc(Nc3ccc(F)cc3F)cc2CCc2ccc(OC[C@H](O)CO)cc21 [Skepinone-L]
Cell Viability [1, 4]: 115.343%
Cell Viability [1, 5]: 88.0925%
Cell Viability [1, 6]: 155.18%
Cell Viability [1, 7]: 90.6486%
Cell Viability [2, 4]: 88.3042%
Cell Viability [2, 5]: 86.6611%
Cell Viability [2, 6]: 113.922%
Cell Viability [2, 7]: 95.9781%
Cell Viability [3, 4]: 150.905%
Cell Viability [3, 5]: 93.4936%
Cell Viability [3, 6]: 165.429%
Cell Viability [3, 7]: 90.897%

CN1CCN(C(=O)C(C)(C)c2ccc(C(=O)Nc3cn4cc(-c5cc(C(C)(C)C)cc(C(C)(C)C)c5)ccc4n3)cc2)CC1 [T3-CLK-N]
Cell Viability [1, 4]: 119.67%
Cell Viability [1, 5]: 85.6501%
Cell Viability [1, 6]: 109.915%
Cell Viability [1, 7]: 85.7063%
Cell Viability [2, 4]: 83.0148%
Cell Viability [2, 5]: 112.725%
Cell Viability [2, 6]: 124.688%
Cell Viability [2, 7]: 67.9916%
Cell Viability [3, 4]: 129.357%
Cell Viability [3, 5]: 95.6255%
Cell Viability [3, 6]: 93.4655%
Cell Viability [3, 7]: 83.9103%

CN1CCN(C(=O)C(C)(C)c2ccc(C(=O)Nc3cn4cc(-c5ccncc5)ccc4n3)cc2)CC1 [T3-CLK]
Cell Viability [1, 4]: 42.8408%
Cell Viability [1, 5]: 189.116%
Cell Viability [1, 6]: 24.3767%
Cell Viability [1, 7]: 109.981%
Cell Viability [2, 4]: 17.3495%
Cell Viability [2, 5]: 291.942%
Cell Viability [2, 6]: 28.5908%
Cell Viability [2, 7]: 98.0167%
Cell Viability [3, 4]: 26.2693%
Cell Viability [3, 5]: 164.302%
Cell Viability [3, 6]: 35.9707%
Cell Viability [3, 7]: 93.5791%

COc1cccc(CNC(=O)c2nc3scc(CN(C)Cc4ccccc4)c3c(=O)[nH]2)c1 [T-26f]
Cell Viability [1, 4]: 114.676%
Cell Viability [1, 5]: 151.389%
Cell Viability [1, 6]: 102.721%
Cell Viability [1, 7]: 101.465%
Cell Viability [2, 4]: 156.545%
Cell Viability [2, 5]: 109.586%
Cell Viability [2, 6]: 116.769%
Cell Viability [2, 7]: 103.534%
Cell Viability [3, 4]: 86.5179%
Cell Viability [3, 5]: 95.8142%
Cell Viability [3, 6]: 82.3734%
Cell Viability [3, 7]: 95.7877%

O[C@H]1CC[C@H](Nc2ncc3nc(Nc4c(F)cc(F)cc4F)n([C@H]4CCOC4)c3n2)CC1 [TANZISERTIB]
Cell Viability [1, 4]: 96.802%
Cell Viability [1, 5]: 109.826%
Cell Viability [1, 6]: 106.51%
Cell Viability [1, 7]: 114.573%
Cell Viability [2, 4]: 129.23%
Cell Viability [2, 5]: 97.8883%
Cell Viability [2, 6]: 76.6269%
Cell Viability [2, 7]: 101.702%
Cell Viability [3, 4]: 101.857%
Cell Viability [3, 5]: 126.192%
Cell Viability [3, 6]: 105.608%
Cell Viability [3, 7]: 109.828%

Cc1nc(-c2cn3c(n2)-c2ccc(-c4cnn(C(C)(C)C(N)=O)c4)cc2OCC3)n(C(C)C)n1 [TASELISIB]
Cell Viability [1, 4]: 42.3556%
Cell Viability [1, 5]: 62.2904%
Cell Viability [1, 6]: 29.0303%
Cell Viability [1, 7]: 59.8749%
Cell Viability [2, 4]: 15.8608%
Cell Viability [2, 5]: 146.008%
Cell Viability [2, 6]: 9.086%
Cell Viability [2, 7]: 84.7341%
Cell Viability [3, 4]: 25.1108%
Cell Viability [3, 5]: 133.934%
Cell Viability [3, 6]: 29.7364%
Cell Viability [3, 7]: 65.8836%

COc1cccc2c1c(O)c(C(=O)N(C)c1ccc(C(F)(F)F)cc1)c(=O)n2C [TASQUINIMOD]
Cell Viability [1, 4]: 78.5663%
Cell Viability [1, 5]: 130.265%
Cell Viability [1, 6]: 63.1287%
Cell Viability [1, 7]: 110.699%
Cell Viability [2, 4]: 63.9822%
Cell Viability [2, 5]: 99.9703%
Cell Viability [2, 6]: 87.5673%
Cell Viability [2, 7]: 108.719%
Cell Viability [3, 4]: 94.583%
Cell Viability [3, 5]: 144.919%
Cell Viability [3, 6]: 82.4794%
Cell Viability [3, 7]: 97.8059%

C[C@@H]1CCN(C(=O)CC#N)C[C@@H]1N(C)c1ncnc2[nH]ccc12.O=C(O)CC(O)(CC(=O)O)C(=O)O [TOFACITINIB CITRATE]
Cell Viability [1, 4]: 105.115%
Cell Viability [1, 5]: 91.9737%
Cell Viability [1, 6]: 115.164%
Cell Viability [1, 7]: 114.62%
Cell Viability [2, 4]: 115.032%
Cell Viability [2, 5]: 86.9545%
Cell Viability [2, 6]: 89.5356%
Cell Viability [2, 7]: 81.856%
Cell Viability [3, 4]: 119.294%
Cell Viability [3, 5]: 99.6774%
Cell Viability [3, 6]: 102.323%
Cell Viability [3, 7]: 98.8919%

CCC(=O)N1CCN(c2ccc(-n3c(=O)ccc4cnc5ccc(-c6cnc7ccccc7c6)cc5c43)cc2C(F)(F)F)CC1 [TORIN1]
Cell Viability [1, 4]: 4.705%
Cell Viability [1, 5]: 40.1911%
Cell Viability [1, 6]: 4.406%
Cell Viability [1, 7]: 17.8443%
Cell Viability [2, 4]: 7.384%
Cell Viability [2, 5]: 44.8651%
Cell Viability [2, 6]: 4.069%
Cell Viability [2, 7]: 24.9993%
Cell Viability [3, 4]: 6.678%
Cell Viability [3, 5]: 21.6908%
Cell Viability [3, 6]: 9.433%
Cell Viability [3, 7]: 15.03%

Cc1cnc(-c2cc(Cl)ccc2F)cc1-n1c(=O)n(CC(N)=O)c2cnccc21 [TP-008]
Cell Viability [1, 4]: 13.7504%
Cell Viability [1, 5]: 213.932%
Cell Viability [1, 6]: 47.0575%
Cell Viability [1, 7]: 82.299%
Cell Viability [2, 4]: 64.1613%
Cell Viability [2, 5]: 114.054%
Cell Viability [2, 6]: 79.9392%
Cell Viability [2, 7]: 106.384%
Cell Viability [3, 4]: 97.8203%
Cell Viability [3, 5]: 116.603%
Cell Viability [3, 6]: 124.72%
Cell Viability [3, 7]: 98.4627%

Cn1nc(C(F)(F)F)cc1-c1cnc(N2CCc3cc(S(=O)(=O)Nc4c(F)cc(Cl)cc4F)cc(N4CCCC4=O)c32)nc1 [TP-020]
Cell Viability [1, 4]: 112.159%
Cell Viability [1, 5]: 131.656%
Cell Viability [1, 6]: 120.125%
Cell Viability [1, 7]: 102.548%
Cell Viability [2, 4]: 86.7802%
Cell Viability [2, 5]: 95.2287%
Cell Viability [2, 6]: 142.794%
Cell Viability [2, 7]: 105.743%
Cell Viability [3, 4]: 84.372%
Cell Viability [3, 5]: 107.562%
Cell Viability [3, 6]: 84.9301%
Cell Viability [3, 7]: 79.7114%

Cc1cc(-n2nc(Cc3cc(F)cc(C(F)(F)F)c3)nc2C)ccc1C(N)=O [TP-024]
Cell Viability [1, 4]: 141.247%
Cell Viability [1, 5]: 165.614%
Cell Viability [1, 6]: 109.141%
Cell Viability [1, 7]: 106.563%
Cell Viability [2, 4]: 120.055%
Cell Viability [2, 5]: 118.791%
Cell Viability [2, 6]: 103.637%
Cell Viability [2, 7]: 122.989%
Cell Viability [3, 4]: 111.425%
Cell Viability [3, 5]: 96.0369%
Cell Viability [3, 6]: 116.033%
Cell Viability [3, 7]: 105.901%

CC1CCN(c2ccnc(NCc3cn(C)cn3)n2)CC1 [TP-040]
Cell Viability [1, 4]: 72.882%
Cell Viability [1, 5]: 83.2209%
Cell Viability [1, 6]: 105.865%
Cell Viability [1, 7]: 110.509%
Cell Viability [2, 4]: 75.5826%
Cell Viability [2, 5]: 95.0735%
Cell Viability [2, 6]: 105.645%
Cell Viability [2, 7]: 103.982%
Cell Viability [3, 4]: 87.8979%
Cell Viability [3, 5]: 100.433%
Cell Viability [3, 6]: 106.891%
Cell Viability [3, 7]: 94.952%

CN1CCN(c2ccnc(NCCc3ccccc3)n2)CC1 [TP-040n]
Cell Viability [1, 4]: 79.4477%
Cell Viability [1, 5]: 81.2059%
Cell Viability [1, 6]: 106.155%
Cell Viability [1, 7]: 134.56%
Cell Viability [2, 4]: 67.1911%
Cell Viability [2, 5]: 97.5889%
Cell Viability [2, 6]: 115.175%
Cell Viability [2, 7]: 123.14%
Cell Viability [3, 4]: 93.1561%
Cell Viability [3, 5]: 99.6193%
Cell Viability [3, 6]: 147.697%
Cell Viability [3, 7]: 101.671%

CC(=O)Nc1cccc(-n2c(=O)n(C3CC3)c(=O)c3c(Nc4ccc(I)cc4F)n(C)c(=O)c(C)c32)c1 [TRAMETINIB]
Cell Viability [1, 4]: 4.434%
Cell Viability [1, 5]: 57.2708%
Cell Viability [1, 6]: 3.321%
Cell Viability [1, 7]: 25.6485%
Cell Viability [2, 4]: 2.051%
Cell Viability [2, 5]: 46.1337%
Cell Viability [2, 6]: 3.859%
Cell Viability [2, 7]: 28.7914%
Cell Viability [3, 4]: 1.363%
Cell Viability [3, 5]: 9.093%
Cell Viability [3, 6]: 1.0764%
Cell Viability [3, 7]: 6.441%

Cc1ccc2[nH]c(CNCCCc3ccncc3)cc(=O)c2c1 [UCSF924NC]
Cell Viability [1, 4]: 92.2965%
Cell Viability [1, 5]: 82.507%
Cell Viability [1, 6]: 94.1046%
Cell Viability [1, 7]: 89.0396%
Cell Viability [2, 4]: 121.67%
Cell Viability [2, 5]: 109.302%
Cell Viability [2, 6]: 107.027%
Cell Viability [2, 7]: 101.655%
Cell Viability [3, 4]: 108.907%
Cell Viability [3, 5]: 109.825%
Cell Viability [3, 6]: 95.9143%
Cell Viability [3, 7]: 99.591%

Cc1ccc2nc(CNCCCOc3ccccc3)cc(O)c2c1 [UCSF924]
Cell Viability [1, 4]: 107.729%
Cell Viability [1, 5]: 156.395%
Cell Viability [1, 6]: 110.04%
Cell Viability [1, 7]: 105.774%
Cell Viability [2, 4]: 114.798%
Cell Viability [2, 5]: 125.381%
Cell Viability [2, 6]: 97.5529%
Cell Viability [2, 7]: 90.0539%
Cell Viability [3, 4]: 83.703%
Cell Viability [3, 5]: 116.782%
Cell Viability [3, 6]: 86.6693%
Cell Viability [3, 7]: 107.391%

CC(C)Oc1ccc(-c2nn([C@@H](C)c3oc4ccc(F)cc4c(=O)c3-c3cccc(F)c3)c3ncnc(N)c23)cc1F [UMBRALISIB]
Cell Viability [1, 4]: 96.678%
Cell Viability [1, 5]: 112.425%
Cell Viability [1, 6]: 122.966%
Cell Viability [1, 7]: 119.327%
Cell Viability [2, 4]: 102.839%
Cell Viability [2, 5]: 87.858%
Cell Viability [2, 6]: 157.324%
Cell Viability [2, 7]: 122.853%
Cell Viability [3, 4]: 152.127%
Cell Viability [3, 5]: 105.235%
Cell Viability [3, 6]: 156.597%
Cell Viability [3, 7]: 100.314%
